Test results from patent publication US20170157159A1, “COMBINATION TREATMENT OF ACUTE MYELOID LEUKEMIA AND MYELODYSPLASTIC SYNDROME I” (Boehringer Ingelheim International GmbH, priority 2013, published 2017).

System: human AML cell line MV4;11
Assay: Nude mouse xenograft model derived from human AML cell line MV4;11: tumor growth
Type: in vivo
Conditions: 21 days, MV4;11 xenograft
Method: MV4;11 (CRL-9591) cells were obtained from ATCC. According to the Catalogue of Somatic Mutations in Cancer of the Wellcome Trust Sanger Institute, UK, this cell line carries a mutation in the FLT3 gene. Cells were cultured in T175 tissue culture flasks at 37° C. and 5% CO2. The medium used was IMDM supplemented with 10% fetal calf serum, 1% NEAA, 1% sodium pyruvate and 1% glutamine.
Mice were 8-9 week-old athymic female BomTac: NMRI-Foxn1^nu purchased from Taconic, Denmark. After arrival in the animal facility, mice were allowed to adjust to ambient conditions for at least 3 days before they were used for experiments. They were housed in Macrolon® type II cages in groups of 5 under standardized conditions at 21.5±1.5° C. temperature and 55±10% humidity. Standardized diet (PROVIMI KLIBA) and autoclaved tap water were provided ad libitum.
To establish subcutaneous tumors, MV4;11 cells were harvested and resuspended in PBS+5% FCS at 5×10^7 cells/ml. 50 μl of the cell suspension containing 2.5×10^6 cells was then injected subcutaneously into the right flank of the mice (1 site per mouse). Growth factor reduced BD Matrigel™ Matrix (BD Biosciences) was added to the cell suspension at a ratio of 1:1 before the injection.
Volasertib (BI 6727) was dissolved in hydrochloric acid (0.1 N), diluted with 0.9% NaCl and injected intravenously into the tail vein. An administration volume of 10 ml per kg body weight was used. The solution was freshly made up each injection day. Decitabine was dissolved in 0.9% NaCl and administered i.p. An administration volume of 10 ml per kg body weight was used.
The tumor diameter was measured three times a week with a caliper. The volume of each tumor [in mm^3] was calculated according to the formula “tumor volume=length*diameter^2*π/6”. To monitor side effects of treatment, mice were inspected daily for abnormalities and body weight was determined three times a week. […] In addition animals with tumor sizes exceeding 2000 mm^3 were sacrificed early during the studies for ethical reasons.
(§1) Animals were treated for 21 days.
as §1, §1

Nc1ncn([C@H]2C[C@H](O)[C@@H](CO)O2)c(=O)n1 [decitabine, Decitabine]
T/C (ratio of median tumor volume of treated vs. control tumors) (decitabine alone 1.25 mg/kg i.p. twice weekly on two consecutive days): 59% | T/C (ratio of median tumor volume of treated vs. control tumors) (decitabine alone 2.5 mg/kg i.p. twice weekly on two consecutive days): 53%

CC[C@@H]1C(=O)N(C)c2cnc(Nc3ccc(C(=O)N[C@H]4CC[C@H](N5CCN(CC6CC6)CC5)CC4)cc3OC)nc2N1C(C)C [Volasertib, N-[trans-4-[4-(cyclopropylmethyl)-1-piperazinyl]cyclohexyl]-4-[[(7R)-7-ethyl-5,6,7,8-tetrahydro-5-methyl-8-(1-methylethyl)-6-oxo-2-pteridinyl]amino]-3-methoxy-benzamide]
T/C (ratio of median tumor volume of treated vs. control tumors) (Volasertib alone 10 mg/kg i.v. once weekly): 76% | T/C (ratio of median tumor volume of treated vs. control tumors) (Volasertib alone 20 mg/kg i.v. once weekly): 38%
